# In US20130136712A1, “Malodor Control Compositions Comprising Malodor Control Polymers And Acid Catalysts And Methods Thereof” (priority 2011, published 2013):
# How the values were obtained:
# [1] = Table 1, Accord A; cited from earlier work
# [2] = test system: Soiled sponge samples (microbe reduction); test: Odor prevention performance, SOLARIS detection of acidic respiratory byproducts; type: cell-based; conditions: sponge treated 15 minutes, dried 12 hours; incubated 120 hrs at 37° C.
# Experimental: The Control formulation containing no malodor control polymer or zinc salt, and Formulations containing individual polymers, zinc salts, and zinc-polymer complexes are compared for their effect on odor prevention, through microbe reduction.
# Soiled sponge samples were cut into 1×6 cm strips and treated with the solutions (Table 10) for 15 minutes and dried at ambient temperature for 12 hours. The treated 1 cm strips were then cut into lx1 cm pieces, placed into SOLARIS scintillation vials, and 1 ml of MOPS buffer was added. The open vials were placed into outer SOLARIS vials containing thymolphthalein blue pH indicator and the vials were finally capped. The sealed vials were placed into a SOLARIS machine and incubated for 120 hrs at 37° C. Colorimetric measurements were conducted according to SOLARIS VIV protocol and the detection times of acidic respiratory byproducts were record (Table 10).
# [3] = Sulfur odor control performance of zinc polymer complexes, headspace GC/MS; conditions: spiked with 3 parts-per-million; 2 hours room temperature, 30 minutes 35° C.; Control = 1.0
# Experimental: Butanethiol and dipropoyl sulfide were chosen as chemical surrogates for sulfur containing odors such as kitchen (onion/garlic), sewage, etc. These two molecules also enable the assessment of efficacy of polymer for sulfur molecules having different degrees of hydrophobicity (e.g more hydrophobic dipropylsulfide is usually harder to mitigate with hydrophilic technologies such as cyclodextrin).
# 5 ml test solution was placed in a GC-MS vial and spiked with 3 parts-per-million of butanethiol or dipropylsulfide. The solutions were first equilibrated at room temperature for 2 hours, then incubated at 35° C. for 30 minutes. The headspace of each vial was finally sampled using a PDMS/SPME fiber and analyzed by GC/MS. The reductions in head space concentrations of sulfur molecules were measured and the data were normalized to Control (Table 9).
# [4] = Malodor control performance of HMPs, headspace SPME GC/MS of spiked test solution; conditions: 5 ml test solution spiked with 5 microliters; 2 hours room temperature, 30 minutes 35° C.; Control = 1.0
# Experimental: This example illustrates the malodor efficacy of the HMPs of the present invention. Isovaleric acid was chosen as a chemical surrogate for body odor while butylamine was used as a representative for amine-containing odors such as fish, pet urine, etc. Hydrophobic greasy cooking odors were represented by aldehydes such as nonanal.
# The solutions are first equilibrated at room temperature for 2 hours, then incubated at 35° C. for 30 minutes. The headspace of each vial is finally sampled using a polydimethyl siloxane (PDMS) / Solid-Phase-Micro-Extraction (SPME) fiber and analyzed by GC/MS. The reductions in head space concentrations of odor molecules are measured and the data are normalized to Control.
# Lower numbers denote high levels of malodor molecules present in the solution that are attributed to high malodor control efficacy of polymers.
# [5] = benchmark for HMPs; cited from earlier work
compound,measurement,setting,value
"CC(C=O)Cc1ccc(C(C)C)cc1 (stereo not drawn) [Cymal, Alpha-methyl-p-isopropyl phenyl propyl aldehyde]",VP(torr) @25° C.,[1],0.007 torr
C=CC(C)CCC=C(C)CCC=O (stereo not shown) [Floral Super],VP(torr) @25° C.,[1],0.030 torr
"CC(C)c1cccc(C(C)CC=O)c1 (stereo not shown) [Florhydral, 3-(3-Isopropyl-phenyl)-butyraldehyde]",VP(torr) @25° C.,[1],0.008 torr
"C=CCCCCCCCCC=O [Intreleven Aldehyde, undec-10-en-1-al]",VP(torr) @25° C.,[1],0.060 torr
"COC1CC2CC1C1CC(C=O)CC21 (stereo not shown) [Scentenal, octahydro-5-methoxy-4,7-Methano-1H-indene-2-carboxaldehyde]",VP(torr) @25° C.,[1],0.010 torr
[Cl-].[Cl-].[Zn+2] [ZnCl2],Respiratory Byproducts Detection Time,[2],3.38 h
same,Butanethiol head space concentration normalized to Control,[3],0.8
same,Dipropylsulfide head space concentration normalized to Control,[3],1.0
same,Butylamine (Fish) head space concentration normalized to Control,[4],0.0
same,Isovaleric Acid (Body) head space concentration normalized to Control,[4],1.0
same,Nonanal (Grease) head space concentration normalized to Control,[4],1.0
COc1ccccc1C=O [o-anisaldehyde],VP(torr) @25° C.,[1],0.032 torr
hydroxypropyl modified beta cyclodextrin,ambient temperature water solubility (benchmark),[5],≥ 60 g/100 ml
